Experimental data from US20190192532A1, “COMBINATION THERAPY OF BROMODOMAIN INHIBITORS AND CHECKPOINT BLOCKADE” (DANA-FARBER CANCER INSTITUTE, priority 2015, published 2019).

How the values were obtained:
PD-L1 (CD274) = test: PD-L1 expression on Eμ-Myc lymphoma cell lines by flow cytometry (MFI) after in vitro treatment; type: cell-based, murine; settings: for expression of PD-L1 (CD274) on lymphoma cells (MFI): 24 hours in vitro, vs DMSO
Experimental: (§1) […] lymphoma cells (5×10^5) were incubated in the presence of JQ1, or DMSO, in 500 μL culture media in a 48 well plates (Corning, N.Y.) prior to analysis of PD-L1/L2 expression by flow cytometry. Human RPMI-8226 and L540 cells (5×10^5) were incubated in the presence of JQ1, or DMSO vehicle, in 500 μL culture media in a 48 well plates (Corning, N.Y.). Additionally RPMI-8226 cells were cultured with 100 ng/ML, IFN-γ as a single agent and in combination with JQ1, prior to analysis of PD-L1/L2 expression by flow cytometry.
Cell suspensions were washed once with ice-cold flow cytometry buffer (2% FCS and 0.02% NaN3 in PBS) and resuspended in anti-CD16/32 monoclonal antibody (clone 2.4G2) on ice for 30 minutes to block Fc receptors. Cell suspensions were washed once with ice-cold flow cytometry buffer and stained on ice for 30 minutes with the following conjugated antibodies: anti-mouse CD3 (pacific blue, 1:400, clone 17A2), anti-mouse CD4 (APC, 1:400, clone RM4-5), anti-mouse CD8 (PE-Cy7, 1:400, clone 53-6.7), anti-mouse PD-1 (FITC, 1:400, clone J43), anti-mouse PD-L1 (PE, 1:100, clone MIH5), anti-mouse PD-L2 (Biotin, 1:200, clone TY25), anti-human PD-L1 (PE, 1:200, clone 29E.2A3), or anti-human PD-L2 (Biotin, 1:200, clone 24F.10C12). Biotinylated antibodies were subsequently incubated with Streptavidin-PE-Cy7 (1:1000, catalogue number 25-4317-82) or Streptavidin-Pacific Blue (1:1000, catalogue number 48-4317-82) for 30 minutes on ice. Anti-Armenian Hamster IgG (FITC, 1:400, catalogue number 554011), Mouse IgG2aκ (PE, 1:100, clone RTK2758), Rat IgG2aκ (Biotin, 1:200, clone eBR2a), Mouse IgG2bκ (PE, 1:200, catalogue number 559529), and Mouse IgG2aκ (Biotin, 1:200, clone eBM2a) were used as isotype control antibodies, respectively. All antibodies were purchased from BioLegend (San Diego, Calif.), eBiosciences (San Diego, Calif.), or BD Bioscience (San Diego, Calif.). Cell suspensions were washed once with ice-cold flow cytometry buffer, resuspended in ice-cold flow cytometry buffer containing 7-AAD (1:1000, BD Bioscience) and analyzed by flow cytometry. Data was collected on a LSR Fortessa flow cytometer (BD Biosciences) and analyzed using FlowJo Software, version 10.0.7 (Tree Star).
As described in FIGS. 2A and 2B, JQ1 downregulates the expression of PD-L1 (CD274) on lymphoma cells as determined by flow cytometry analysis. Graphs showing the mean fluorescence intensity (MFI) of PD-L1 on Eμ-Myc lymphoma cell lines (FIG. 2A) ^#4242 and (FIG. 2B) ^#299 over-expressing Bcl-2 following 24 hours treatment in vitro with indicated concentrations of JQ1, or DMSO control are provided. Representative data are presented as mean MFI of cells cultured and analyzed in triplicate±S.E.M. (****p <0.0001, Student's t test).
PD-L1 downregulation following BET inhibition is time-dependent. Flow cytometry analysis of PD-L1 expression on Eμ-Myc lymphoma cell line ^#6066 following treatment in vitro with 500 nM JQ1 or DMSO control for indicated time points was performed.
Chemically distinct bromodomain inhibitors downregulate the expression of PD-L1 (CD274) on lymphoma cells, as shown by flow cytometry. […] Representative data are presented as mean MFI of cells cultured and analyzed in triplicate±S.E.M. (***p<0.001, Student's t test).

Eμ-Myc lymphoma = test: Survival of mice bearing transplanted Eμ-Myc lymphoma (Kaplan-Meier); type: in vivo, mouse; settings: 50 mg/kg daily i.p.
Experimental: (§2) Female C57BL/6 mice were purchased. C57BL/6.Rag2cγ^−/− mice were bred in house. C57BL/6.Rag1^−/− mice were purchased. For transplantation of Eμ-Myc lymphomas in vivo, cohorts of six- to eight-week-old syngeneic mice were inoculated via tail vein injection with 1-4×10^5 Eμ-Myc lymphoma cells. Mice were treated with 50 mg/kg JQ1, reconstituted in 1 part DMSO to 9 parts 10% (w/v) Hydroxypropyl-β-cyclodextrin (HPBCD; Cyclodextrin Technologies Development Inc., Gainesville, Fla.) In sterile water, or DMSO vehicle control. Mice were dosed once daily (5 days/week) via intra-peritoneal (i.p.) injection, commencing three days post-intravenous inoculation, for a total of 5 weeks therapy or until treatment failure. Tumor-bearing C57BL/6 mice were treated with the following monoclonal antibodies via i.p. injection: Anti-4-1-BB (Anti-CD137, 100 μg, 3H3; BioXCell), anti-PD-1 (100 μg, […]; BioXCell), or control immunoglobulin. (cIg, Rat IgG2a, 2A3, 100 μg; BioXCell). Anti-PD-1 mAb was dosed on days 5, 10, 15, and 20 post tumor transplant. Anti-4-1BB mAb was dosed on days 5, 8, and 11 post tumor transplant.
Cohorts of mice on a C57BL/6 background (n=10 per treatment group) were injected intravenously with 1-5×10^5 Eμ-Myc lymphoma cells three days prior to commencement of daily dosing with JQ1 (50 mg/kg), or DMSO vehicle., via i.p. injection. […]

PD-L1 [1] = test: PD-L1 expression on tumor cells of treated lymphoma-bearing mice by flow cytometry; type: in vivo, mouse
Experimental: (§3) Cell suspensions were washed once with ice-cold flow cytometry buffer (2% FCS and 0.02% NaN3 in PBS) and resuspended in anti-CD16/32 monoclonal antibody (clone 2.4G2) on ice for 30 minutes to block Fc receptors. […] Cell suspensions were washed once with ice-cold flow cytometry buffer, resuspended in ice-cold flow cytometry buffer containing 7-AAD (1:1000, BD Bioscience) and analyzed by flow cytometry. Data was collected on a LSR Fortessa flow cytometer (BD Biosciences) and analyzed using FlowJo Software, version 10.0.7 (Tree Star). […]
(§4) A cohort of mice were injected intravenously with 1-5×10^5 Eμ-Myc lymphoma ^#4242 cells and left for 12 days to develop bulky nodal disease. Peripheral lymph nodes were harvested 16 hours following a single dose of JQ1 (50 mg/kg), or DMSO vehicle (n=3 per treatment group) and assessed by flow cytometry. […]
A cohort of mice were injected intravenously with 1-5×10^5 Eμ-Myc lymphoma ^#4242/Bcl-2 cells and treated daily with JQ1 (50 mg/kg), or DMSO vehicle (n=5 per treatment group). At day 18, peripheral blood was obtained and tumor cells were assessed by flow cytometry. […]

PD-L2 (CD273) = test: PD-L2 expression on tumor cells of treated lymphoma-bearing mice by flow cytometry; type: in vivo, mouse; settings: single dose 50 mg/kg; peripheral lymph nodes 16 hours after dose; Eμ-Myc lymphoma #4242 in C57BL/6 mice
Experimental: Cell suspensions were washed once with ice-cold flow cytometry buffer (2% FCS and 0.02% NaN3 in PBS) and resuspended in anti-CD16/32 monoclonal antibody (clone 2.4G2) on ice for 30 minutes to block Fc receptors. Cell suspensions were washed once with ice-cold flow cytometry buffer and stained on ice for 30 minutes with the following conjugated antibodies: anti-mouse CD3 (pacific blue, 1:400, clone 17A2), anti-mouse CD4 (APC, 1:400, clone RM4-5), anti-mouse CD8 (PE-Cy7, 1:400, clone 53-6.7), anti-mouse PD-1 (FITC, 1:400, clone J43), anti-mouse PD-L1 (PE, 1:100, clone MIH5), anti-mouse PD-L2 (Biotin, 1:200, clone TY25), anti-human PD-L1 (PE, 1:200, clone 29E.2A3), or anti-human PD-L2 (Biotin, 1:200, clone 24F.10C12). […] Cell suspensions were washed once with ice-cold flow cytometry buffer, resuspended in ice-cold flow cytometry buffer containing 7-AAD (1:1000, BD Bioscience) and analyzed by flow cytometry. Data was collected on a LSR Fortessa flow cytometer (BD Biosciences) and analyzed using FlowJo Software, version 10.0.7 (Tree Star). […]
as §4

PD-L1 transcript = test: Quantitative real-time PCR of PD-L1 mRNA in Eμ-Myc lymphoma cell lines; type: cell-based, Mus musculus; settings: 1000 nM; Eμ-Myc lymphoma #4242 and #299 over-expressing Bcl-2; indicated time points
Experimental: Eμ-Myc lymphomas cells were cultured in the presence of JQ1, or DMSO, as described above. RNA was extracted from cell pellets using the Nucleospine® RNA extraction kit (Macherey-Nagel, Bethlehem, Pa.) as per the manufacturer's instructions. cDNA was synthesized according to the manufacturer's instructions (Promega, Sydney, NSW). Quantitative PCR analysis of samples was performed on the 7900HT Fast Real-Time PCR System (Applied Biosystems, Mulgrave, VIC, Australia') with SYBR-green ROX mix (Agilent, Mulgrave, VIC, Australia). GAPDH was used as the murine control genes. Primer sequences were: Mus musculus PD-L1 F: […] (SEQ ID NO: 1) R: […] (SEQ ID NO: 2), Mus musculus GAPDH F: […] (SEQ ID NO: 3) R: […] (SEQ ID NO: 4).
Quantitative real-time-PCR (qPCR) analysis of PD-L1 mRNA levels in Eμ-Myc lymphoma cell lines (FIG. 2G) ^#4242 and (FIG. 2H) ^#299 over-expressing Bcl-2 following treatment with 1000 nM JQ1, or DMSO control, was performed at indicated time points. Transcript levels are presented as fold change compared to DMSO. Data are presented as mean fold-change from 3 separate experiments±S.E.M. (**p<0.01, ***p<0.001, ****p<0.0001, Student's t test).

PD-L1 [2] = test: Constitutive PD-L1 expression on Hodgkin lymphoma cell line L540 by flow cytometry; type: cell-based, human; settings: L540 cells; 24 hours in vitro; indicated concentrations
Experimental: as §1, §3

PD-L1 [3] = test: IFN-γ-inducible PD-L1 expression on multiple myeloma cell line RPMI-8226 by flow cytometry; type: cell-based, human; settings: RPMI-8226 cells; 500 nM with 100 ng/mL IFN-γ; 24 hours
Experimental: as §1
Cell suspensions were washed once with ice-cold flow cytometry buffer (2% FCS and 0.02% NaN3 in PBS) and resuspended in anti-CD16/32 monoclonal antibody (clone 2.4G2) on ice for 30 minutes to block Fc receptors. […] Cell suspensions were washed once with ice-cold flow cytometry buffer, resuspended in ice-cold flow cytometry buffer containing 7-AAD (1:1000, BD Bioscience) and analyzed by flow cytometry. Data was collected on a LSR Fortessa flow cytometer (BD Biosciences) and analyzed using FlowJo Software, version 10.0.7 (Tree Star).
JQ1 treatment downregulates the IFN-γ-inducible expression of PD-L1 on human myeloma cell lines. […] Representative data are presented as mean MFI of cells cultured and analyzed in triplicate=S.E.M. (*p<0.05, Student's t test).

Eμ-Myc lymphoma #299 = test: Survival of mice bearing Eμ-Myc lymphoma #299 treated with JQ1 plus anti-PD-1 or anti-4-1BB antibody; type: in vivo, mouse; settings: JQ1 50 mg/kg i.p., 25 doses, combined with 100 μg anti-PD-1 (days 5, 10, 15, 20) or anti-4-1BB (days 5, 8, 11)
Experimental: as §2
FIGS. 4A and 4B show Kaplan-Meier survival curves representing cohorts of […] (n=6 per treatment group) injected intravenously with 1-5×10^5 Eμ-Myc lymphoma ^#299 cells. […]

[4] = Eμ-Myc lymphoma cell line #6066, 1 μM

SMILES: COc1cc2c(cc1-c1c(C)noc1C)ncc1[nH]c(=O)n([C@H](C)c3ccccn3)c12 [IBET-1.51]
- expression of PD-L1 (CD274) on lymphoma cells (MFI) (PD-L1 (CD274); [4]): downregulate

SMILES: CCNC(=O)C[C@@H]1N=C(c2ccc(Cl)cc2)c2cc(OC)ccc2-n2c(C)nnc21 [IBET-762]
- expression of PD-L1 (CD274) on lymphoma cells (MFI) (PD-L1 (CD274); [4]): downregulate

SMILES: Cc1sc2c(c1C)C(c1ccc(Cl)cc1)=N[C@@H](CC(=O)OC(C)(C)C)c1nnc(C)n1-2 [JQ1]
- survival of JQ1-treated immune deficient mice versus JQ1-treated wild type mice (Eμ-Myc lymphoma; C57BL/6.Rag2cγ−/− and C57BL/6.Rag1−/− versus wild type C57BL/6): succumbed to disease significantly earlier
- survival versus DMSO vehicle (Eμ-Myc lymphoma; immune competent (C57BL/6) and immune deficient (Rag2cγ−/−, Rag1−/−) mice, Eμ-Myc lymphoma #4242 and #299): significant survival advantage
- expression of PD-L1 (CD274) on lymphoma cells (MFI) (PD-L1 (CD274); Eμ-Myc lymphoma #4242 and #299 over-expressing Bcl-2, indicated concentrations): downregulates
- time course of PD-L1 downregulation (PD-L1 (CD274); Eμ-Myc lymphoma cell line #6066, 500 nM, indicated time points): time-dependent
- expression of PD-L1 (CD274) on lymphoma cells (MFI) (PD-L1 (CD274); [4]): downregulate
- PD-L1 expression on circulating tumor cells (MFI), chronic treatment (PD-L1 [1]; 50 mg/kg daily, peripheral blood at day 18, Eμ-Myc lymphoma #4242/Bcl-2 in C57BL/6 mice): express lower levels of PD-L1
- PD-L1 expression on live GFP-positive tumor cells (MFI), acute dose (PD-L1 [1]; single dose 50 mg/kg, peripheral lymph nodes 16 hours after dose, Eμ-Myc lymphoma #4242 in C57BL/6 mice): rapidly downregulates
- PD-L2 expression on live GFP-positive tumor cells (MFI), acute dose (PD-L2 (CD273)): rapidly downregulates
- PD-L1 mRNA level (fold change compared to DMSO) (PD-L1 transcript): rapidly downregulates
- constitutive expression of PD-L1 (MFI) (PD-L1 [2]): downregulates
- IFN-γ-inducible expression of PD-L1 (MFI) (PD-L1 [3]): downregulates
- anti-tumor response (survival) in combination therapy (Eμ-Myc lymphoma #299): Promotes Curative Anti-Tumor Responses

SMILES: COc1cc(OC)c2c(=O)[nH]c(-c3cc(C)c(OCCO)c(C)c3)nc2c1 [RVX-208]
- expression of PD-L1 (CD274) on lymphoma cells (MFI) (PD-L1 (CD274); Eμ-Myc lymphoma cell line #6066, 10 μM): downregulate

SMILES: Cc1sc2c(c1C)C(c1ccc(Cl)cc1)=N[C@@H](CC(=O)Nc1ccc(O)cc1)c1nnc(C)n1-2 [Y803]
- expression of PD-L1 (CD274) on lymphoma cells (MFI) (PD-L1 (CD274); [4]): downregulate

SMILES: Cc1sc2c(c1C)C(c1ccc(Cl)cc1)=N[C@@H](CC(=O)NCCCCNC(=O)COc1cccc3c1C(=O)N(C1CCC(=O)NC1=O)C3=O)c1nnc(C)n1-2 (some centres unmarked) [dBET1]
- expression of PD-L1 (CD274) on lymphoma cells (MFI) (PD-L1 (CD274); [4]): downregulate
